Measurements: patent US7365080B2, “Pharmaceutical compositions comprising thieno[2,3-c]pyridine derivatives and use thereof” (Rimonyx Pharmaceuticals Ltd., priority 2003, dated 2008)

What follows are compounds tested against T1, L-Selectin (Homo sapiens, UniProt P14151) (assay: ELISA: inhibition of L-selectin/IgG binding to immobilized heparin (Heparin-BSA)). Settings: L-Selectin binding to heparin.
T1 construct: purchased Research and Development Systems 728-LS
T1 sequence (P14151 39-332 limits assumed): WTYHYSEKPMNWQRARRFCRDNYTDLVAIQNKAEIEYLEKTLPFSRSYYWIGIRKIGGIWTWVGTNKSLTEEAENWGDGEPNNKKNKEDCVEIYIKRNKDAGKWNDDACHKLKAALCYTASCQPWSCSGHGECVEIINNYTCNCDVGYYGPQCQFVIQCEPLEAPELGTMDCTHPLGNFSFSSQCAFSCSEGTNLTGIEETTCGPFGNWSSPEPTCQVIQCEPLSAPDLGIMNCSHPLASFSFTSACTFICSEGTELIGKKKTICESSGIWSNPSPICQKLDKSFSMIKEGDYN
Description: The inhibitory effect of the compounds of the present invention can be evaluated by several methods in vitro. One assay for measuring GAG-ECAM binding, exemplified herein below, detects the binding of L selectin/IgG to immobilized heparin. Another assay utilizes immobilized L-selectin, or L-selectin fused to protein domains other than IgG. The amount of bound L-selectin is determined by an ELISA assay using, for example, a monoclonal antibody raised against L-selectin, which is conjugated to horseradish peroxidase. […] The Dregg-55 antibody was also shown to inhibit L-selectin-dependent adhesion in vitro, neutrophil accumulation in vitro and inflammation in vivo (Co M. S. et al, Immunotechnology 493: 253-266, 1999).
An in vitro assay was used to assess the ability of test compounds according to formula I to inhibit the interactions of L-selectin with HS-GAGs. The assay was suitable for determining the concentration required for 50% inhibition (IC-50) for each specific compound. In the assay, the GAG used was heparin. Thus, porcine intestinal mucosa heparin conjugated to Bovine Serum Albumin (Heparin-BSA; Sigma Cat. No. H0403) at […] in Phosphate Buffered Saline (PBS; pH 6.5) was added to a 96 well polystyrene ELISA plate (NUNC Cat. No. 442404; 0.1 ml per well) and incubated Over Night (ON) at 4° C. Following the incubation, the plate was washed thoroughly, by immersion, with de-ionized water and PBS (pH 6.5). The ELISA plate was then blocked with BSA (ICN Cat. No.160069, 3%, 200 μl per well) for 1 hour at Room Temperature (RT). Following blocking, the plate was washed with de-ionized water, and then with PBS (pH 6.5) containing Tween 20 (Sigma Cat. No. P-1379, 0.05%). Compounds were synthesized or purchased from ChemDiv Labs (San Diego, Calif.), dissolved in DMSO, diluted in PBS and added to the wells at various concentrations in the range of 0.01 to 300 μM. Recombinant Human L-Selectin/IgG (Research and Development Systems Cat. No.728-LS) dissolved in PBS supplemented with BSA (0.1%) and calcium chloride (1 mM) was added to the ELISA plate (100 μl per well) and incubated for 60 minutes at RT with shaking. Following incubation, the plate was washed with de-ionized water and three times with PBS (pH 6.5) containing Tween 20. Anti-Human IgG Peroxidase Conjugate (1:5000; Sigma Product No. A8667) diluted in PBS supplemented with BSA (0.1%) and calcium chloride (1 mM) was added to the ELISA plate (100 μl per well) and incubated for 30 minutes at RT with shaking. The plate was then washed with de-ionized water and three times with PBS (pH 6.5) containing Tween 20. The peroxidase substrate cromogen, TMB (Dako Cat. No. S1599) was added (100 μl per well) to the ELISA plate and incubated at room temperature. After 15 minutes ELISA Stop Solution (hydrochloric acid 1N, sulfuric acid 3N) was added (200 μl per well) to stop the peroxidase catalyzed colorimetric reaction. The Optical Density (OD) of the samples was measured at 450 nm using an ELISA plate reader (Dynatech MR5000). Data were analyzed with Graphpad Prism software and IC-50 values were established. The P-selectin assay was carried out in a similar fashion, except that Recombinant Human P-Selectin/IgG (Research and Development Systems Cat.No.137-PS) was used.

Row | SMILES | IC50 [µM]
1 | CCOC(=O)c1c(NC(=O)c2ccc(S(=O)(=O)N(CC)CC)cc2)sc2c1CC(C)(C)NC2(C)C [Compound 20] | 26
2 | CCN(CC)S(=O)(=O)c1ccc(C(=O)Nc2sc3c(c2-c2nc4ccccc4s2)CCN(C(C)C)C3)cc1 [Compound 3] | 10
3 | CCOC(=O)c1c(NC(=O)c2ccc(S(=O)(=O)N3CCCCCC3)cc2)sc2c1CC(C)(C)NC2(C)C [Compound 18] | 11
4 | CN(C1CCCCC1)S(=O)(=O)c1ccc(C(=O)Nc2sc3c(c2C(N)=O)CC(C)(C)NC3(C)C)cc1 [Compound 21] | 36
5 | CC1(C)Cc2c(sc(NC(=O)c3ccc(S(=O)(=O)N4CCCc5ccccc54)cc3)c2C(N)=O)C(C)(C)N1 [Compound 25] | 12
6 | C=CCN(CC=C)S(=O)(=O)c1ccc(C(=O)Nc2sc3c(c2C(=O)OC)CC(C)(C)NC3(C)C)cc1 [Compound 19] | 43
7 | CC(C)N1CCc2c(sc(NC(=O)c3ccc(S(=O)(=O)N4CCOCC4)cc3)c2-c2nc3ccccc3s2)C1 [Compound 10] | 25
8 | CCOC(=O)c1c(NC(=O)c2ccc(S(=O)(=O)N3CCCc4ccccc43)cc2)sc2c1CCN(C(C)C)C2 [Compound 16] | 11
9 | CCN1CCc2c(sc(NC(=O)c3ccc(S(=O)(=O)N(C)c4ccccc4)cc3)c2C(=O)NC)C1 [Compound 27] | 9

Same assay, conditions: L-Selectin binding to heparin; 50 μM

Row | SMILES | inhibition at 50 µM [%]
10 | CN1CCc2c(sc(NC(=O)c3ccc(S(=O)(=O)N4CCCCC4)cc3)c2-c2nc3ccccc3s2)C1 [Compound 36] | 26
11 | CC1CCN(S(=O)(=O)c2ccc(C(=O)Nc3sc4c(c3-c3nc5ccccc5s3)CCN(C)C4)cc2)CC1 [Compound 38] | 33
12 | CC(C)N1CCc2c(sc(NC(=O)c3ccc(S(=O)(=O)N4CCCCC4C)cc3)c2-c2nc3ccccc3s2)C1 (stereo not shown) [Compound 45] | 24
13 | COCCN(CCOC)S(=O)(=O)c1ccc(C(=O)Nc2sc3c(c2C(N)=O)CC(C)(C)NC3(C)C)cc1 [Compound 26] | 23
14 | CN1CCc2c(sc(NC(=O)c3ccc(S(=O)(=O)N4CCOCC4)cc3)c2-c2nc3ccccc3s2)C1 [Compound 9] | 52
15 | CCCCN(C)S(=O)(=O)c1ccc(C(=O)Nc2sc3c(c2-c2nc4ccccc4s2)CCN(C)C3)cc1 [Compound 32] | 26
16 | CC(C)N1CCc2c(sc(NC(=O)c3ccc(S(=O)(=O)N(C)c4ccccc4)cc3)c2C(N)=O)C1 [Compound 13] | 68
17 | CCCCN(CC)S(=O)(=O)c1ccc(C(=O)Nc2sc3c(c2C(N)=O)CCN(C(C)C)C3)cc1 [Compound 12] | 55
18 | CN1CCc2c(sc(NC(=O)c3ccc(S(=O)(=O)N4CCCC4)cc3)c2-c2nc3ccccc3s2)C1 [Compound 35] | 24
19 | CCN1CCc2c(sc(NC(=O)c3ccc(S(=O)(=O)N(CC)Cc4ccccc4)cc3)c2C(N)=O)C1 [Compound 28, 2-[[4-[[ethyl(phenylmethyl)amino]sulfonyl]benzoyl]amino]-6-ethyl-4,5,6,7-tetrahydrothieno[2,3-c]pyridine-3-carboxamide] | 63
20 | CCOC(=O)c1c(NC(=O)c2ccc(S(=O)(=O)N3CCN(C(=O)OCC)CC3)cc2)sc2c1CCN(C(C)C)C2 [Compound 17] | 21
21 | CC1CCCN(S(=O)(=O)c2ccc(C(=O)Nc3sc4c(c3-c3nc5ccccc5s3)CCN(C)C4)cc2)C1 (stereo not shown) [Compound 37] | 23
22 | CC1CC(C)CN(S(=O)(=O)c2ccc(C(=O)Nc3sc4c(c3-c3nc5ccccc5s3)CCN(C)C4)cc2)C1 (stereo not shown) [Compound 39] | 24
23 | CCCN(CCC)S(=O)(=O)c1ccc(C(=O)Nc2sc3c(c2-c2nc4ccccc4s2)CCN(C)C3)cc1 [Compound 30] | 21
24 | COCCN(CCOC)S(=O)(=O)c1ccc(C(=O)Nc2sc3c(c2-c2nc4ccccc4s2)CCN(C)C3)cc1 [Compound 4] | 43
25 | CCN(CC)S(=O)(=O)c1ccc(C(=O)Nc2sc3c(c2-c2nc4ccccc4s2)CCN(C)C3)cc1 [Compound 2] | 60

Row | SMILES | inhibition at 50 µM [%]
26 | CCCCN(CCCC)S(=O)(=O)c1ccc(C(=O)Nc2sc3c(c2-c2nc4ccccc4s2)CCN(C)C3)cc1 [Compound 31] | 27
27 | C=CCN(CC=C)S(=O)(=O)c1ccc(C(=O)Nc2sc3c(c2-c2nc4ccccc4s2)CCN(CC)C3)cc1 [Compound 41] | 25
28 | CN1CCc2c(sc(NC(=O)c3ccc(S(=O)(=O)N(C)c4ccccc4)cc3)c2-c2nc3ccccc3s2)C1 [Compound 6] | 44
29 | CC(C)N1CCc2c(sc(NC(=O)c3ccc(S(=O)(=O)N4CCCCC4)cc3)c2-c2nc3ccccc3s2)C1 [Compound 44] | 29
30 | CCCCN(CC)S(=O)(=O)c1ccc(C(=O)Nc2sc3c(c2-c2nc4ccccc4s2)CCN(C)C3)cc1 [Compound 33] | 21
31 | CCCCN(C)S(=O)(=O)c1ccc(C(=O)Nc2sc3c(c2C(=O)OCC)CCN(C(C)C)C3)cc1 [Compound 15] | 40
32 | CCOC(=O)N1CCN(S(=O)(=O)c2ccc(C(=O)Nc3sc4c(c3C(N)=O)CC(C)(C)NC4(C)C)cc2)CC1 [Compound 24] | 29
33 | C=CCN(CC=C)S(=O)(=O)c1ccc(C(=O)Nc2sc3c(c2-c2nc4ccccc4s2)CCN(C)C3)cc1 [Compound 34] | 25
34 | CCN1CCc2c(sc(NC(=O)c3ccc(S(=O)(=O)N4CCN(C)CC4)cc3)c2C(N)=O)C1 [Compound 29, 2-[[4-[(4-methyl-1-piperazinyl)sulfonyl]benzoyl]amino]-6-ethyl-4,5,6,7-tetrahydrothieno[2,3-c]pyridine-3-carboxamide] | 30
35 | CCCN(CCC)S(=O)(=O)c1ccc(C(=O)Nc2sc3c(c2-c2nc4ccccc4s2)CCN(CC)C3)cc1 [Compound 40] | 25
36 | C=CCN(CC=C)S(=O)(=O)c1ccc(C(=O)Nc2sc3c(c2-c2nc4ccccc4s2)CCN(C(C)C)C3)cc1 [Compound 43] | 17
37 | CCN1CCc2c(sc(NC(=O)c3ccc(S(=O)(=O)N4CCCCCC4)cc3)c2-c2nc3ccccc3s2)C1 [Compound 8] | 46
38 | CCCCN(CC)S(=O)(=O)c1ccc(C(=O)Nc2sc3c(c2-c2nc4ccccc4s2)CCN(C(C)C)C3)cc1 [Compound 42] | 27
39 | CCCCN(C)S(=O)(=O)c1ccc(C(=O)Nc2sc3c(c2C(N)=O)CC(C)(C)NC3(C)C)cc1 [Compound 23] | 39
40 | CCN(CC)S(=O)(=O)c1ccc(C(=O)Nc2sc3c(c2C(N)=O)CC(C)(C)NC3(C)C)cc1 [Compound 22] | 35
41 | CC1CC(C)CN(S(=O)(=O)c2ccc(C(=O)Nc3sc4c(c3C(N)=O)CCN(C(C)C)C4)cc2)C1 (stereo not shown) [Compound 14] | 35

The compounds below were run on Human T-lymphocytes on human endothelial cells (assay: T-lymphocyte rolling on endothelial cells under shear flow). Settings: Homo sapiens; 25 μM; high shear flow; read-out: inhibition of cell rolling.
Format: cell-based
Description: Human T-lymphocytes were passed over a layer of human endothelial cells according to the method of Lawrence and Springer (Cell 65: 859-873, 1991). At high shear flow, migrating T-lymphocytes adhered transiently and intermittently to the endothelial cells as a consequence of HS-GAG-ECAM interaction. The resulting T-cell rolling was recorded by video camera and the number of rolling cells per defined area during a constant period of time was determined. Soluble heparin (competitor of cell surface GAGs) abolished T-cell rolling under high shear flow conditions. Compounds no. 1, 11 and 25, each at 25 μM, inhibited cell rolling by 90, 90 and 70%, respectively.

Row | SMILES | inhibition at 25 µM [%]
42 | CC1(C)Cc2c(sc(NC(=O)c3ccc(S(=O)(=O)N4CCCc5ccccc54)cc3)c2C(N)=O)C(C)(C)N1 [Compound 25] | 70

Same assay, conditions: test compound (25 μM); shear flow

Row | SMILES | % rolling [%]
43 | CC1(C)Cc2c(sc(NC(=O)c3ccc(S(=O)(=O)N4CCCc5ccccc54)cc3)c2C(N)=O)C(C)(C)N1 [Compound 25] | <10
